Active and inactive are the calls of the source.
Key:
[1] = cytotoxicity in HPDE-C7 cells, cell-based, fluorescence, HTS (AID 430); format: functional; conditions: Homo sapiens
[2] = cytotoxicity in KRAS-transformed pancreatic duct cells, primary screen, cell-based, fluorescence, HTS (AID 431); format: functional; conditions: Homo sapiens;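 further: cell line used: HPDE-C7K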
[3] = molecular target: T1, Calpain-2 catalytic subunit (Sus scrofa, UniProt P43367); assay: pig calpain II inhibitor potency, dose response, biochemical, fluorogenic peptide substrate (AID 1420); format: functional
T1 sequence (P43367 whole entry): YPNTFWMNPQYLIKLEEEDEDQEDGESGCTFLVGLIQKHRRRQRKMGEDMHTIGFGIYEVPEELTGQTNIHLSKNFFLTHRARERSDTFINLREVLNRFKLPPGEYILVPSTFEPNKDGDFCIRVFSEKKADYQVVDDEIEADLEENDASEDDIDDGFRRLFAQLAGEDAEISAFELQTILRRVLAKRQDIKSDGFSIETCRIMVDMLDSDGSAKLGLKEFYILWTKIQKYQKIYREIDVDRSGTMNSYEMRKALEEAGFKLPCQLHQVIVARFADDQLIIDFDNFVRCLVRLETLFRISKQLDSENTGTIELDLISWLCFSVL

[4] = molecular target: Voltage-gated inwardly rectifying potassium channel KCNH2 (Homo sapiens, UniProt Q12809); assay: hERG protection from proarrhythmic block, potency, dose response, cell-based, thallium flux (AID 2121); format: ADME
Sequence of Voltage-gated inwardly rectifying potassium channel KCNH2 (Q12809 whole entry): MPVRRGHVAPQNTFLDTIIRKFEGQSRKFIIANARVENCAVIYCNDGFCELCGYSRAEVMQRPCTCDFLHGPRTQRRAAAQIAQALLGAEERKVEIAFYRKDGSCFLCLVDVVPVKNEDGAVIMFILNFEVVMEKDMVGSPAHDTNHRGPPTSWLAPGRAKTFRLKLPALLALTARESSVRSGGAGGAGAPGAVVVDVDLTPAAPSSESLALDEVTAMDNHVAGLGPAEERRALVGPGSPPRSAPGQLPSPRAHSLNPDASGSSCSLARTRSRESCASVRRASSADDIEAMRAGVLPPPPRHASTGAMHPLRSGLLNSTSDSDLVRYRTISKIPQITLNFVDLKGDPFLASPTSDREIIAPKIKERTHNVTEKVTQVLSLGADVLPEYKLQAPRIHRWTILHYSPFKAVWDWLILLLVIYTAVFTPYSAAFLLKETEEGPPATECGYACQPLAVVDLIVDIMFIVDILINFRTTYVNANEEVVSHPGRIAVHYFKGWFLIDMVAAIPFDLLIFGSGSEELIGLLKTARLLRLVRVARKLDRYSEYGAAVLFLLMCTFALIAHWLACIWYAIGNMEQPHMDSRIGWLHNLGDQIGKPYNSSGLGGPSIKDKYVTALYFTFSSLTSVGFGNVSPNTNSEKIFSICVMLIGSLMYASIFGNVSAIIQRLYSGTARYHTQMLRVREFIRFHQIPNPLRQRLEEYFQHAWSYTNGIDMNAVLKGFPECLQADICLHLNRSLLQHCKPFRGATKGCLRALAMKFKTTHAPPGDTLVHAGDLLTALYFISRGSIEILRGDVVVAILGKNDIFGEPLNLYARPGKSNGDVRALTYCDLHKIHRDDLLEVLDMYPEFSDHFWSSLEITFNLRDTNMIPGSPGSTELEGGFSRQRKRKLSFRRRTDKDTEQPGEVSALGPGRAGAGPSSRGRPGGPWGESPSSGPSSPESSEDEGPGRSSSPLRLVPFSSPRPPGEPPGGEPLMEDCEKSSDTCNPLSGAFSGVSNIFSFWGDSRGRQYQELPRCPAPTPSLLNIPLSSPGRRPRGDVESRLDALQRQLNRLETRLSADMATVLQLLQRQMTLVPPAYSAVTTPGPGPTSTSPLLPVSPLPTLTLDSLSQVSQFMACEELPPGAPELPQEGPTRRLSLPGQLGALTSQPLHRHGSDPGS

[5] = Luminescence Cell-Based Dose Retest to Confirm Inhibitors of Cancer Stem Cells. [Related pubchem assays (depositor defined):AID2717, AID2721]; format: functional, Homo sapiens; conditions: Homo sapiens
Nonstructural protein 1 = Nonstructural protein 1 (Influenza A virus, UniProt Q194T2); format: functional, Influenza A virus (A/California/07/2009(H1N1))
Sequence of Nonstructural protein 1 (Q194T2 whole entry): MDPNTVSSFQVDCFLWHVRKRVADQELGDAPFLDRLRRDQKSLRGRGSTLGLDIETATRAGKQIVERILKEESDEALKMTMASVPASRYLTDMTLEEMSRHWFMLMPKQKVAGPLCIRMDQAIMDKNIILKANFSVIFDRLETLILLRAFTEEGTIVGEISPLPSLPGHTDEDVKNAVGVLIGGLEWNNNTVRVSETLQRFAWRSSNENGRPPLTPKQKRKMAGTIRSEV

Protein skinhead-1 = molecular target: T2, Protein skinhead-1 (Caenorhabditis elegans, UniProt P34707); format: functional
T2 sequence (P34707 whole entry): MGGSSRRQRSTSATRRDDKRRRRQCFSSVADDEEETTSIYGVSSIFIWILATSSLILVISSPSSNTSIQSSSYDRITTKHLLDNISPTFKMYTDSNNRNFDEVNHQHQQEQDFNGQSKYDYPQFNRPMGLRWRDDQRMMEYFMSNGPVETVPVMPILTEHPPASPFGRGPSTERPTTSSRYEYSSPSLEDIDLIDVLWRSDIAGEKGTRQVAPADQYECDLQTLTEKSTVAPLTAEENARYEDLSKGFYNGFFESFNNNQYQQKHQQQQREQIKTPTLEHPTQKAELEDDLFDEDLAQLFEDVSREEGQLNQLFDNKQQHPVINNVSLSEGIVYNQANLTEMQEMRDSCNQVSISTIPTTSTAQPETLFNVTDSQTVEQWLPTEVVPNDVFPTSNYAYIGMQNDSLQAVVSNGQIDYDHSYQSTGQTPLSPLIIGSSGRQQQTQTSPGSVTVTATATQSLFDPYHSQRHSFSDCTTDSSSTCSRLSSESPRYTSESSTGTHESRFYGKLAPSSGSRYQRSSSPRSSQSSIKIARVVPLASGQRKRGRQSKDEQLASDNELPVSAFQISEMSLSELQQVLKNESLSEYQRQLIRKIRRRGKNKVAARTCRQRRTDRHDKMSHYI

[6] = M. tuberculosis H37Rv growth inhibitors, H37Rv strain (AID 1626); format: functional
[7] = NIH-3T3 fibroblast cytotoxicity, dose response, cytotoxicity control, cell-based, fluorescence, Alamar Blue, secondary assay (AID 2327); format: functional;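 further: NIH-3T3 mouse fibroblasts cultured with fluconazole at 8 µg/mL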
[8] = C. albicans growth with fluconazole, confirmation, fluorescence, retest (AID 2467); format: functional, cell-based
[9] = inhibitors of intracellular T. cruzi replication, confirmation, NIH3T3 host cells, beta-gal luminescence (AID 2044); format: functional, cell-based;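 further: intracellular parasites grown in NIH/3T3 mouse fibroblasts as host cells; luminescent beta-galactosidase reporter signal from transgenic T. cruzi replicating inside host cells; inhibitors lower the luminescence signal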
[10] = molecular target: T3, Serine/threonine-protein phosphatase (Candida dubliniensis (strain CD36 / CBS 7987 / NCPF 3949 / NRRLY-17841) (Yeast), UniProt B9W6M3); assay: calcineurin pathway inhibitors in yeast reporter, dose response, S. cerevisiae, CDRE-lacZ, luminescence, secondary (AID 2388); format: functional, cell-based;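 further: yeast reporter cells carrying a calcineurin-responsive lacZ construct stimulated with calcium chloride; luminescent beta-galactosidase reporter signal in whole cells rather than isolated phosphatase activity; potency for inhibition where a drop in reporter signal means calcineurin blockade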
T3 sequence (B9W6M3 whole entry): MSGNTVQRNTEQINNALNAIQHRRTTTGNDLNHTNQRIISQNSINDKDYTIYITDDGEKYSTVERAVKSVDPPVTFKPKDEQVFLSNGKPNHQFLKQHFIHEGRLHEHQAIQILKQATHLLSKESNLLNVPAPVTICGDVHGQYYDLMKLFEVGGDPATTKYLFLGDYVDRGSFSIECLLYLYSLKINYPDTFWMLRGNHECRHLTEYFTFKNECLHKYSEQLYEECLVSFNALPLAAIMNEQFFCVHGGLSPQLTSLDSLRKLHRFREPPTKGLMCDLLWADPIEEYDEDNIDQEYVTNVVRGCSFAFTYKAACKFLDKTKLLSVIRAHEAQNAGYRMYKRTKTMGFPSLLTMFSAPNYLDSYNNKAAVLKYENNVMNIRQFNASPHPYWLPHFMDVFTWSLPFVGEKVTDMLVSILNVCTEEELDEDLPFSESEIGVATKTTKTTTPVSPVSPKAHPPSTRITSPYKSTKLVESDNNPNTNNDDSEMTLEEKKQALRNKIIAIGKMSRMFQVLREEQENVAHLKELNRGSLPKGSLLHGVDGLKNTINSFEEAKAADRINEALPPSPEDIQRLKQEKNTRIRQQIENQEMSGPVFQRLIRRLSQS

[11] = cytotoxicity toward NIH3T3 fibroblasts, dose response, counter-screen, cell-based, ATP luminescence, mouse fibroblasts (AID 2010); format: functional;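 further: cells exposed to compound for about 90 hours before reading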
INS1 = assay: beta cell apoptosis inhibitors, cytokine rescue, dose response, luminescence, retest (AID 449756); format: functional, cell-based; conditions: Rattus norvegicus;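 further: cell death triggered by IL-1 beta plus TNF-alpha plus IFN-gamma mixture; protective hits raise ATP signal compared with cytokine alone wells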
[12] = molecular target: ATP-dependent molecular chaperone HSP82 (Candida albicans (strain WO-1) (Yeast), UniProt C4YTQ8); assay: loss of DOC-induced GRE-beta-galactosidase reporter signal, dose response, Hsp90 inhibitor project, S. cerevisiae, luminescence (AID 2400); format: functional, cell-based;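 further: beta-galactosidase luminescence from glucocorticoid response element reporter as proxy for Hsp90 function; inhibitor potency where signal loss means Hsp90 inhibition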
Sequence of ATP-dependent molecular chaperone HSP82 (C4YTQ8 whole entry): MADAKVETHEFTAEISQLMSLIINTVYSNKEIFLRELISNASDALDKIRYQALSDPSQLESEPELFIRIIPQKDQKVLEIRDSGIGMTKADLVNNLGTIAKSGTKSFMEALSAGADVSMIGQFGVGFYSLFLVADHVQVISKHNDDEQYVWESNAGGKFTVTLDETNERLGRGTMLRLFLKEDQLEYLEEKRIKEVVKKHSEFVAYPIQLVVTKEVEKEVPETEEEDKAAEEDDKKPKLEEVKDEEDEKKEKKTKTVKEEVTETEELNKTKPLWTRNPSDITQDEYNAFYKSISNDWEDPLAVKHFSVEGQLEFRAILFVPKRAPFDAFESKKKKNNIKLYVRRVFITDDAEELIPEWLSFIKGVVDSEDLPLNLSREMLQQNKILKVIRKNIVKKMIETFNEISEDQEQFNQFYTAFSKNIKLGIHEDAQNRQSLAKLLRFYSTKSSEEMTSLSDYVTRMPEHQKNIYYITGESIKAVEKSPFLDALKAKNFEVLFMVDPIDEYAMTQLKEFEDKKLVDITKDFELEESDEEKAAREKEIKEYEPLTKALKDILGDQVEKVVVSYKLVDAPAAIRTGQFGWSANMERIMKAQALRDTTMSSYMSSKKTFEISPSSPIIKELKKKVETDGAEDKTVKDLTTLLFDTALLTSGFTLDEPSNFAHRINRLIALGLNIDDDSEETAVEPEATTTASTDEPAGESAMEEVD

[13] = HEK293T cytotoxicity, dose response, cytotoxicity control for miR-122 modulator project, cell-based, inhibitor set, cherry-pick, set 2 (AID 720697); format: functional
[14] = HEK293T cytotoxicity, dose response, cytotoxicity control for miR-122 modulator project, cell-based, activator set, cherry-pick (AID 720690); format: functional;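 further: HEK293T human cells scored for general mammalian cytotoxicity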
[15] = molecular target: Protein-tyrosine kinase 2-beta (Homo sapiens, UniProt Q14289);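 further: potency of inhibitors of PYK2 kinase phosphorylation of poly-GT substrate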
Sequence of Protein-tyrosine kinase 2-beta (Q14289 whole entry): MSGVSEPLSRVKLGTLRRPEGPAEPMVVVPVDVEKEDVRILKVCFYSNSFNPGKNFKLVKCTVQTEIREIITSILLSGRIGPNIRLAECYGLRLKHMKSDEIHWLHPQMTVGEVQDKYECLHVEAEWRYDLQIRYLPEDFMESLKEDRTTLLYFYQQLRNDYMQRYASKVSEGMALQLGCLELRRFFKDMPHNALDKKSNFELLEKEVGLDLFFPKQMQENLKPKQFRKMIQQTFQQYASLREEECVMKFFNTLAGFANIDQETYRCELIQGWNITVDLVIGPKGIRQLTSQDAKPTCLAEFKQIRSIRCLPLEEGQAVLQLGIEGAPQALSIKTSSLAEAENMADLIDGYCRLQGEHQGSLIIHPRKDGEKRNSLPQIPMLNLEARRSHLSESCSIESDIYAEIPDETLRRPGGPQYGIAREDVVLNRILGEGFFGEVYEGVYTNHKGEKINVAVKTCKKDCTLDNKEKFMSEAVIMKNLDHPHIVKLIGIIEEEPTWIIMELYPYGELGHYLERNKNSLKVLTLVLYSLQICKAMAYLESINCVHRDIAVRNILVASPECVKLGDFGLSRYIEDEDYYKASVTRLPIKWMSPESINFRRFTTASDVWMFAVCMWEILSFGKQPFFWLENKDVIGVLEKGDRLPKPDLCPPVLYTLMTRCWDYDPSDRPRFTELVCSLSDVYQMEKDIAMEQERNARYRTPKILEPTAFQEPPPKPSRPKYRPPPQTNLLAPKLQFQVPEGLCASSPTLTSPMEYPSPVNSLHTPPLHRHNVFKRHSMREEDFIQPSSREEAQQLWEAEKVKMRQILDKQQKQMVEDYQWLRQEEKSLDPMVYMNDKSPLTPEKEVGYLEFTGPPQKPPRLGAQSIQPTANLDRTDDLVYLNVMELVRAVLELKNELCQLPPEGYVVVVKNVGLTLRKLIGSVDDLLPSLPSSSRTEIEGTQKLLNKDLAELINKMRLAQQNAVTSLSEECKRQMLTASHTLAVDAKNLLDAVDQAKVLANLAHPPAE

Estrogen receptor beta = Estrogen receptor beta (Homo sapiens, UniProt Q92731); assay: ERβ–SRC-3 coactivator interaction inhibitors, confirmation, orthogonal assay, biochemical, ELISA, streptavidin-HRP readout (AID 1060)
Sequence of Estrogen receptor beta (Q92731 whole entry): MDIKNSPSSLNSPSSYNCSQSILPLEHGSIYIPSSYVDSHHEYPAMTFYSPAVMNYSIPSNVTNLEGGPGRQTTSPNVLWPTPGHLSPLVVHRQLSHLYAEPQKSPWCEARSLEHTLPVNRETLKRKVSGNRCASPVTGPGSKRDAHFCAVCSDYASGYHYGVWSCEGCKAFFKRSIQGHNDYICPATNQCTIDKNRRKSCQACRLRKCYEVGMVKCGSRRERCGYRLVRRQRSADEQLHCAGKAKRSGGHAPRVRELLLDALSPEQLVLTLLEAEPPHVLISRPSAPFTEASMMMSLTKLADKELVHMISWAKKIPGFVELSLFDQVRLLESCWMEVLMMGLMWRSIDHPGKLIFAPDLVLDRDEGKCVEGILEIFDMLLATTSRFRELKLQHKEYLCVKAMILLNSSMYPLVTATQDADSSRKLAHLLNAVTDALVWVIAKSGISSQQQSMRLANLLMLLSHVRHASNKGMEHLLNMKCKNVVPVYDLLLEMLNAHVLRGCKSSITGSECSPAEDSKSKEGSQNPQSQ

[16] = molecular target: T4, Rac GTPase-activating protein 1 (Homo sapiens, UniProt Q9H0H5); assay: MgcRacGAP GTPase-activating activity inhibitors, confirmation, biochemical, ADP Hunter fluorescence, primary and confirmatory (AID 624330); format: functional
T4 sequence (Q9H0H5 whole entry): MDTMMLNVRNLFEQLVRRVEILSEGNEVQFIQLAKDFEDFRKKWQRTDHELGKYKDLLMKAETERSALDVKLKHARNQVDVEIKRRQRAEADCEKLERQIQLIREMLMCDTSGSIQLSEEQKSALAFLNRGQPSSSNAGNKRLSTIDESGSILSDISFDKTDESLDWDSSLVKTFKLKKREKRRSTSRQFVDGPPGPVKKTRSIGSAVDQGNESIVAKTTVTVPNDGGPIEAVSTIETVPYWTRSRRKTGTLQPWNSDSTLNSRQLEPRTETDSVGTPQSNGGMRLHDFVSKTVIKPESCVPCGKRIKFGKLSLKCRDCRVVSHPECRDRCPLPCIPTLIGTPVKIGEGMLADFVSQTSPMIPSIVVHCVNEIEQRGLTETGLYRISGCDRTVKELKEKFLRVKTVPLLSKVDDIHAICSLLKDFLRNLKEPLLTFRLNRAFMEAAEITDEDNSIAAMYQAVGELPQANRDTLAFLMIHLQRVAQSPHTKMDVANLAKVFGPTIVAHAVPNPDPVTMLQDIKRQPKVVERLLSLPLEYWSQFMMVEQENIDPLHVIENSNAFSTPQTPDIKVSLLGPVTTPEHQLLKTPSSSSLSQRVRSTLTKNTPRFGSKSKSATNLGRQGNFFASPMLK

[17] = molecular target: T5, Short transient receptor potential channel 4 (Mus musculus, UniProt Q9QUQ5); assay: mouse TRPC4 channel inhibitors, dose response, cell-based, HEK293 TRPC4/mu-opioid, Fluo-4 calcium (AID 434942); format: functional;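 further: potency of inhibitors blocking the TRPC4 calcium response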
T5 sequence (Q9QUQ5 whole entry): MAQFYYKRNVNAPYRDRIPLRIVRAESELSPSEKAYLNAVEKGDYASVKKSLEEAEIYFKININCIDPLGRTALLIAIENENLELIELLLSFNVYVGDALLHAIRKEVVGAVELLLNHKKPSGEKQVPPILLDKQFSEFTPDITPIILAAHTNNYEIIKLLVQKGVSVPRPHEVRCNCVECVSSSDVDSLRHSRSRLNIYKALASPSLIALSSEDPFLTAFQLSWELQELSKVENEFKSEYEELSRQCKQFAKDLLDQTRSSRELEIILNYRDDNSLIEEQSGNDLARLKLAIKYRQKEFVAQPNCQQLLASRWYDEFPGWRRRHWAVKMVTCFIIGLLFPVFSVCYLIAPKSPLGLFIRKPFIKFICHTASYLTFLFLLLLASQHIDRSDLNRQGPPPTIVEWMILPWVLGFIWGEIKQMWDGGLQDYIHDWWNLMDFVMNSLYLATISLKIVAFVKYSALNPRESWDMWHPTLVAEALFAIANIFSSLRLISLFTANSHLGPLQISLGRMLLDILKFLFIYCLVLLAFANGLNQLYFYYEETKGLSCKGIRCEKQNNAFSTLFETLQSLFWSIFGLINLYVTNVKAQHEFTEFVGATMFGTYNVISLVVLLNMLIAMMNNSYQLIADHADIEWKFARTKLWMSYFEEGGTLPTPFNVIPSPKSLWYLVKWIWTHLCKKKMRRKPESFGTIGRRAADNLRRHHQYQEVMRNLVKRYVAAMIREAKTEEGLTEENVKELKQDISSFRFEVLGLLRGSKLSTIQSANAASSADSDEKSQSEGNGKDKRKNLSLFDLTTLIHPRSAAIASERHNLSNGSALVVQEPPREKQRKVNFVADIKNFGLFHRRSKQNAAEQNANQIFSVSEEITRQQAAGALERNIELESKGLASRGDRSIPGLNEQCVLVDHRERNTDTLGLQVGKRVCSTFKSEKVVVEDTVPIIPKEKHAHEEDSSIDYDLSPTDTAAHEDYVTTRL

[18] = molecular target: T6, Microphthalmia-associated transcription factor (Homo sapiens, UniProt O75030); assay: TRPM1 promoter luciferase signal decrease, dose response, MITF inhibitor project, cell-based, SK-MEL-5, cherry-picked, set 3 (AID 493073); format: functional
T6 sequence (O75030 whole entry): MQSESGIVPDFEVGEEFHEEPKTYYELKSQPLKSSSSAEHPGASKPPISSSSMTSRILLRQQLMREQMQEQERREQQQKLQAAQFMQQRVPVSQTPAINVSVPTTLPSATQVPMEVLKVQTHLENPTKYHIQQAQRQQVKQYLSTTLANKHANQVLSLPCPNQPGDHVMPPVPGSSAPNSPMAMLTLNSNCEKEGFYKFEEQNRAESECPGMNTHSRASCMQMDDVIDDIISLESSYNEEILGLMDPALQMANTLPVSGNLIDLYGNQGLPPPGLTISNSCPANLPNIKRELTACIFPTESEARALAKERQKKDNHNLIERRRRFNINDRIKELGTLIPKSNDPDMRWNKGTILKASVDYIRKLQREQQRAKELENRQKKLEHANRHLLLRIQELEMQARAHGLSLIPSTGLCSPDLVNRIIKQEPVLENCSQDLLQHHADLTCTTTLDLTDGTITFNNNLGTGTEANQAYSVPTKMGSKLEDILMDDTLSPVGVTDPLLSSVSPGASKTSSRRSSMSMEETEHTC

Compound: CCOC(=O)C1CCN(Cc2c[nH]nc2-c2ccc(C)cc2)CC1
- EC50 [1]: > 20 µM (not active)
- EC50 [2]: > 20 µM (not active)

Compound: Cc1ccc(C(C#N)c2ccc3c(C(F)(F)F)cc(C(F)(F)F)nc3n2)cc1 (centres undefined)
- IC50 [3]: > 50 µM (not active)
- EC50 [4]: 6 µM (active)
- AC50 [5]: 1.78 µM (active)
- IC50 (Nonstructural protein 1): 24.4 µM (active)
- IC50 (Protein skinhead-1): > 100 µM (inactive)

Compound: CCOC(=O)CNC(=O)CSc1ncnc2c1nnn2-c1ccc(F)cc1
- IC50 [6]: > 100 µM (active)

Compound: N#C/C(=C/c1ccc(-c2ccc(Br)cc2)o1)C(=O)NC1CCCCC1
- IC50 [6]: > 100 µM (active)

Compound: O=C(Oc1c(CN2CCOCC2)cc(Cl)c2cccnc12)c1ccc(F)cc1
- EC50 [7]: > 160 µM (inconclusive)
- EC50 [8]: 1.54 µM (active)
- EC50 [1]: 4.28 µM (active)
- EC50 [9]: 4.69 µM (active)
- EC50 [2]: 12.7 µM (active)
- EC50 [10]: > 180 µM (inactive)
- EC50 [11]: > 60 µM (not active)
- AC50 (INS1): 3.99 µM (active)
- EC50 [12]: > 160 µM (inactive)
- AC50 [13]: 5.7 µM (active)
- AC50 [14]: 9.1 µM (active)

Compound: Cc1nn2c(c1-c1ccccc1)N=C1CCCC(O)=C1C2c1ccccc1 (centres undefined)
- IC50 [15]: > 69.5 µM (not active)

Compound: CN(C)CCN(C(=O)c1cc(Cl)sc1Cl)c1nc2ccc(F)cc2s1
- EC50 [9]: < 0.1 µM (active)
- EC50 [11]: > 60 µM (not active)
- EC50 (cells): 211 nM (active)

Compound: Cc1ccccc1-c1ccc(Nc2ccc(N3CCOCC3)cc2)nn1
- EC50 [9]: 1.42 µM (active)
- IC50 (Estrogen receptor beta): < 23 nM (not active)
- IC50 [15]: 14.5 µM (not active)
- EC50 [11]: > 60 µM (not active)
- IC50 [16]: 79.6 µM (active)

Compound: Cc1ccc(-c2c[n+](Cc3cccc(Cl)c3)c3n2CCC3)cc1
- EC50 [9]: < 0.1 µM (active)
- EC50 [11]: > 30 µM (not active)
- EC50 [17]: 1.33 µM (active)
- AC50 [18]: 12.2 µM (active)
- EC50 (cells): 25 nM (active)

From ChEMBL document CHEMBL1201862, “PubChem BioAssay data set” (2004)
